Source: patent US8962660B2 (Bristol-Myers Squibb Company, priority 2013, dated 2015)

Key:
human GPR120 = molecular target: T1, human GPR120 (Homo sapiens, UniProt Q5NUL3); test: GPR120 pERK AlphaScreen SureFire assay (human); format: cell-based; settings: CHO cells stably transfected with short form of human GPR120
T1 construct: expressed in transfected cells; host or cells: CHOA12 cells
T1 sequence (Q5NUL3 1-361): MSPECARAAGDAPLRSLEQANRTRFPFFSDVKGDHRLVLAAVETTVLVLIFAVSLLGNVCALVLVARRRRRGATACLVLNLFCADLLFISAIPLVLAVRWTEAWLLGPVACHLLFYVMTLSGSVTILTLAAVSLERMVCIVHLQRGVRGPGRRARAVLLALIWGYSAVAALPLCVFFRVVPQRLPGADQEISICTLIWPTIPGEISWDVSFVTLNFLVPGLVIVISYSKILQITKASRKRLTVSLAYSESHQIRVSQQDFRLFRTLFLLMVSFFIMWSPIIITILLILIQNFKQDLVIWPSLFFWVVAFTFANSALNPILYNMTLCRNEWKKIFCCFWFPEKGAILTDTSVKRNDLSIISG
Summary of the method: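 CHOA12 cells stably expressing short-form human GPR120, serum-starved 2 h, were stimulated 7 min at 37 °C with compound (33.33 μM–0.56 nM, 11-point). pERK read by AlphaScreen SureFire; activation normalized to 50 μM linolenic acid and DMSO blank, EC50 by 4-parameter fit.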

C57BL/6 mice = test: Acute oral glucose tolerance test; format: in vivo; settings: oral glucose tolerance test in mice, dose of 30 mg/kg, AUC t=0-120 min vs vehicle
Experimental: 1) Acute Oral Glucose Tolerance Test
C57BL/6 mice were housed individually and fed a standard rodent chow diet. At approximately 11 weeks age, after a 5 h fast, these mice were orally treated with vehicle or test compounds 60 min before a glucose challenge (2 g/kg). Blood glucose levels were determined from tail bleeds taken at −60, 0, 15, 30, 60 and 120 min after the glucose challenge. The blood glucose excursion profile from t=0-120 min was used to calculate an area under the curve (AUC) for compound treatment. This AUC for compound treatment is compared to vehicle treatment.
In an oral glucose tolerance test in mice at dose of 30 mg/kg, Examples 6, 14 and 80 reduced glucose AUC levels by 40%, 30% and 60% respectively.

SMILES | EC50 (human GPR120) [nM] | reduced glucose AUC levels (C57BL/6 mice) [%]
O=C(O)COCCC12CCC(c3cccc(Oc4ccccc4)c3)(CC1)OC2 [Example 6, 2-(2-(1-(3-Phenoxyphenyl)-2-oxabicyclo[2.2.2]octan-4-yl)ethoxy)acetic acid] | 560 | 40
Cc1ccc(Oc2cc(F)cc(C34CCC(CCOCC(=O)O)(CC3)CO4)c2)cc1F [Example 80, 2-(2-(1-(3-fluoro-5-(3-fluoro-4-methylphenoxy)phenyl)-2-oxabicyclo [2.2.2]octan-4-yl)ethoxy) acetic acid] | 220 | 60
O=C(O)[C@H]1C[C@@H]1CCC12CCC(c3cccc(Oc4ccccc4)c3)(CC1)OC2 (single isomer, unassigned) [Example 14] | 350 | 30
COc1cc(F)cc(Oc2cc(F)cc(C34CCC(CCOCC(=O)O)(CC3)CO4)c2)c1 [Example 84, 2-(2-(1-(3-fluoro-5-(3-fluoro-5-methoxyphenoxy)phenyl)-2-oxabicyclo [2.2.2]octan-4-yl)ethoxy) acetic acid] | 470 | –
